# Reference: PubChem BioAssay (NCI)
#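 Five compound concentrations were applied to cells in 96-well plates for 48 hours; endpoints were derived by simple linear interpolation of the resulting dose-response curve. At the TGI there is no net growth.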
# Experiments:
# Experiment in all cases: NCI anticancer screen, dose series, 48 h
# 786-0 renal = test system: 786-0 renal
# A549 NSCLC = test system: A549 NSCLC
# BT-549 breast = test system: BT-549 breast
# CCRF-CEM leukemia = test system: CCRF-CEM leukemia
# COLO 205 colon = test system: COLO 205 colon
# DU-145 prostate = test system: DU-145 prostate
# EKVX NSCLC = test system: EKVX NSCLC
# HCC-2998 colon = test system: HCC-2998 colon
# HCT-116 colon = test system: HCT-116 colon
# HCT-15 colon = test system: HCT-15 colon
# HL-60(TB) leukemia = test system: HL-60(TB) leukemia
# HOP-62 NSCLC = test system: HOP-62 NSCLC
# HOP-92 NSCLC = test system: HOP-92 NSCLC
# IGROV1 ovarian = test system: IGROV1 ovarian
# K-562 leukemia = test system: K-562 leukemia
# KM12 colon = test system: KM12 colon
# LOX IMVI melanoma = test system: LOX IMVI melanoma
# M14 melanoma = test system: M14 melanoma
# MCF7 breast = test system: MCF7 breast
# MDA-MB-231 breast = test system: MDA-MB-231 breast
# MDA-MB-435 = test system: MDA-MB-435
# MDA-N = test system: MDA-N
# MOLT-4 leukemia = test system: MOLT-4 leukemia
# NCI-H23 lung = test system: NCI-H23 lung
# NCI-H460 lung = test system: NCI-H460 lung
# NCI-H522 lung = test system: NCI-H522 lung
# NCI/ADR-RES ovarian = test system: NCI/ADR-RES ovarian
# OVCAR-3 ovarian = test system: OVCAR-3 ovarian
# OVCAR-4 ovarian = test system: OVCAR-4 ovarian
# OVCAR-5 ovarian = test system: OVCAR-5 ovarian
# OVCAR-8 ovarian = test system: OVCAR-8 ovarian
# PC-3 prostate = test system: PC-3 prostate
# SF-268 CNS = test system: SF-268 CNS
# SF-295 CNS = test system: SF-295 CNS
# SF-539 CNS = test system: SF-539 CNS
# SK-MEL-28 melanoma = test system: SK-MEL-28 melanoma
# SK-MEL-5 melanoma = test system: SK-MEL-5 melanoma
# SK-OV-3 ovarian = test system: SK-OV-3 ovarian
# SN12C renal = test system: SN12C renal
# SNB-19 CNS = test system: SNB-19 CNS
# SNB-75 CNS = test system: SNB-75 CNS
# SR leukemia = test system: SR leukemia
# SW-620 colon = test system: SW-620 colon
# T-47D breast = test system: T-47D breast
# TK-10 renal = test system: TK-10 renal
# U251 CNS = test system: U251 CNS
# UACC-257 melanoma = test system: UACC-257 melanoma
# UACC-62 melanoma = test system: UACC-62 melanoma
# A498 renal = test system: A498 renal
# ACHN renal = test system: ACHN renal
# CAKI-1 renal = test system: CAKI-1 renal
# HS 578T breast = test system: HS 578T breast
# HT29 colon = test system: HT29 colon
# MALME-3M melanoma = test system: MALME-3M melanoma
# NCI-H226 lung = test system: NCI-H226 lung
# RXF 393 renal = test system: RXF 393 renal
# SK-MEL-2 melanoma = test system: SK-MEL-2 melanoma
# UO-31 renal = test system: UO-31 renal
structure (smiles),measurement,setting,value
c1ccc2c(c1)SCCCSCCCS2,TGI,786-0 renal,> 100 µM
same,TGI,A549 NSCLC,> 100 µM
same,TGI,BT-549 breast,> 100 µM
same,TGI,CCRF-CEM leukemia,> 100 µM
same,TGI,COLO 205 colon,> 100 µM
same,TGI,DU-145 prostate,> 100 µM
same,TGI,EKVX NSCLC,> 100 µM
same,TGI,HCC-2998 colon,> 100 µM
same,TGI,HCT-116 colon,> 100 µM
same,TGI,HCT-15 colon,> 100 µM
same,TGI,HL-60(TB) leukemia,74.5 µM
same,TGI,HOP-62 NSCLC,> 100 µM
same,TGI,HOP-92 NSCLC,> 100 µM
same,TGI,IGROV1 ovarian,> 100 µM
same,TGI,K-562 leukemia,> 100 µM
same,TGI,KM12 colon,> 100 µM
same,TGI,LOX IMVI melanoma,> 100 µM
same,TGI,M14 melanoma,> 100 µM
same,TGI,MCF7 breast,> 100 µM
same,TGI,MDA-MB-231 breast,> 100 µM
same,TGI,MDA-MB-435,> 100 µM
same,TGI,MDA-N,> 100 µM
same,TGI,MOLT-4 leukemia,> 100 µM
same,TGI,NCI-H23 lung,> 100 µM
same,TGI,NCI-H460 lung,> 100 µM
same,TGI,NCI-H522 lung,> 100 µM
same,TGI,NCI/ADR-RES ovarian,> 100 µM
same,TGI,OVCAR-3 ovarian,> 100 µM
same,TGI,OVCAR-4 ovarian,> 100 µM
same,TGI,OVCAR-5 ovarian,> 100 µM
same,TGI,OVCAR-8 ovarian,> 100 µM
same,TGI,PC-3 prostate,> 100 µM
same,TGI,SF-268 CNS,> 100 µM
same,TGI,SF-295 CNS,> 100 µM
same,TGI,SF-539 CNS,> 100 µM
same,TGI,SK-MEL-28 melanoma,> 100 µM
same,TGI,SK-MEL-5 melanoma,> 100 µM
same,TGI,SK-OV-3 ovarian,> 100 µM
same,TGI,SN12C renal,> 100 µM
same,TGI,SNB-19 CNS,> 100 µM
same,TGI,SNB-75 CNS,> 100 µM
same,TGI,SR leukemia,> 100 µM
same,TGI,SW-620 colon,> 100 µM
same,TGI,T-47D breast,> 100 µM
same,TGI,TK-10 renal,> 100 µM
same,TGI,U251 CNS,> 100 µM
same,TGI,UACC-257 melanoma,> 100 µM
same,TGI,UACC-62 melanoma,> 100 µM
NC1=NC(=O)[C@H](CSCc2ccccc2)N1C(=O)OCc1ccccc1,TGI,786-0 renal,> 100 µM
same,TGI,A498 renal,> 100 µM
same,TGI,ACHN renal,> 100 µM
same,TGI,BT-549 breast,> 100 µM
same,TGI,CAKI-1 renal,> 100 µM
same,TGI,COLO 205 colon,> 100 µM
same,TGI,DU-145 prostate,> 100 µM
same,TGI,EKVX NSCLC,> 100 µM
same,TGI,HCC-2998 colon,> 100 µM
same,TGI,HCT-116 colon,> 100 µM
same,TGI,HCT-15 colon,> 100 µM
same,TGI,HL-60(TB) leukemia,> 100 µM
same,TGI,HOP-62 NSCLC,> 100 µM
same,TGI,HS 578T breast,> 100 µM
same,TGI,HT29 colon,> 100 µM
same,TGI,IGROV1 ovarian,> 100 µM
same,TGI,K-562 leukemia,> 100 µM
same,TGI,KM12 colon,> 100 µM
same,TGI,LOX IMVI melanoma,> 100 µM
same,TGI,MALME-3M melanoma,> 100 µM
same,TGI,MCF7 breast,> 100 µM
same,TGI,MDA-MB-231 breast,> 100 µM
same,TGI,MDA-MB-435,> 100 µM
same,TGI,MDA-N,> 100 µM
same,TGI,MOLT-4 leukemia,> 100 µM
same,TGI,NCI-H226 lung,> 100 µM
same,TGI,NCI-H23 lung,> 100 µM
same,TGI,NCI-H460 lung,> 100 µM
same,TGI,NCI-H522 lung,> 100 µM
same,TGI,NCI/ADR-RES ovarian,> 100 µM
same,TGI,OVCAR-3 ovarian,> 100 µM
same,TGI,OVCAR-4 ovarian,> 100 µM
same,TGI,OVCAR-5 ovarian,> 100 µM
same,TGI,OVCAR-8 ovarian,> 100 µM
same,TGI,PC-3 prostate,> 100 µM
same,TGI,RXF 393 renal,> 100 µM
same,TGI,SF-268 CNS,> 100 µM
same,TGI,SF-295 CNS,> 100 µM
same,TGI,SK-MEL-2 melanoma,> 100 µM
same,TGI,SK-MEL-5 melanoma,> 100 µM
same,TGI,SN12C renal,> 100 µM
same,TGI,SNB-19 CNS,> 100 µM
same,TGI,SNB-75 CNS,> 100 µM
same,TGI,SR leukemia,> 100 µM
same,TGI,SW-620 colon,> 100 µM
same,TGI,TK-10 renal,> 100 µM
same,TGI,U251 CNS,> 100 µM
same,TGI,UACC-257 melanoma,> 100 µM
same,TGI,UACC-62 melanoma,> 100 µM
same,TGI,UO-31 renal,> 100 µM
